Experimental data taken from patent publication US5714155A, “Ethylenediamine derivative in a cosmetic or dermatological composition, and composition containing in particular a product having an irritant side effect” (Societe L'oreal S.A., priority 1994, dated 1998).

Tested on: contraction of guinea pig ileum by substance P
Test: Antagonism of the in vitro contraction of guinea pig ileum by substance P
Type: cell-based
Details: for substance P antagonism (conclusion of the tests): conclusion from NK1 binding and guinea pig ileum tests
Method: b). Model of antagonism of the in vitro contraction of guinea pig ileum by substance P (10 nM) according to the technique described by Dion et al., Life Sci. 41: 2269-78 (1987) and Patacchini et al., Eur. J. Pharmacol. 215: 93-8 (1992).

SMILES | inhibition at 1 µM (Cavia porcellus, 1 μM, substance P 10 nM) | inhibition at 10 µM (Cavia porcellus, 10 μM, substance P 10 nM) | inhibition at 100 µM (Cavia porcellus, 100 μM, substance P 10 nM) | substance P antagonism (conclusion of the tests)
Cc1cc(C)cc(CNCCNCc2cc(C)cc(C)c2)c1 [Example 1, N,N'-bis(3,5-dimethylbenzyl)ethylenediamine] | -24% | -92% | -100% | substance P antagonists
COc1cc(CNCCNCc2cc(OC)cc(OC)c2)cc(OC)c1 [Example 2, N,N'-bis(3,5-dimethoxybenzyl)ethylenediamine] | – | – | – | substance P antagonists
